Assay results reported in patent US9796733B2, “Imidazo-pyrazine derivatives useful as soluble guanylate cyclase activators” (Merck Sharp & Dohme Corp., priority 2014, dated 2017).

Biological target: T1, sGC α1/β1 heterodimer (Homo sapiens, UniProt Q02108+Q02153)
T1 construct: expressed in transfected cells; host or cells: CHO-K1 (clone #7, CHO-K1/sGC)
T1 sequence (Q02108 1-690): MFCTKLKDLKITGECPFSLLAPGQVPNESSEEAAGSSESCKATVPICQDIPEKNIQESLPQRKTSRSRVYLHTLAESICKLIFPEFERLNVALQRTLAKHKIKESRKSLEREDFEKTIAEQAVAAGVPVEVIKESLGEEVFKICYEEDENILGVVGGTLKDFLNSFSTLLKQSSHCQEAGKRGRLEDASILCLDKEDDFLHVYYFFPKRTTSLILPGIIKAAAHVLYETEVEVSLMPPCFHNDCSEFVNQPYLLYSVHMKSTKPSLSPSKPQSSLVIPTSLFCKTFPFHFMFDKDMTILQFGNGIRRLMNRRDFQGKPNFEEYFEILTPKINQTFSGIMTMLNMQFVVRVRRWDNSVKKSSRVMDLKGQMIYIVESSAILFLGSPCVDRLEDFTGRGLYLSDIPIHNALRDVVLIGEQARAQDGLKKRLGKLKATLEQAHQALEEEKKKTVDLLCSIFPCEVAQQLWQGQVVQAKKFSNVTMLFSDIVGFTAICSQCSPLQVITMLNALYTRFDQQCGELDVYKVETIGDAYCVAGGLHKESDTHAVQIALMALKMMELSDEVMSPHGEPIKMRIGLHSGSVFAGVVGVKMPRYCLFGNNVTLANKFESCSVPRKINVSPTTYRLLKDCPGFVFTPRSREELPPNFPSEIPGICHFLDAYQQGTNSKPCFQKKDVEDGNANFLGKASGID
T1 sequence (Q02153 1-619): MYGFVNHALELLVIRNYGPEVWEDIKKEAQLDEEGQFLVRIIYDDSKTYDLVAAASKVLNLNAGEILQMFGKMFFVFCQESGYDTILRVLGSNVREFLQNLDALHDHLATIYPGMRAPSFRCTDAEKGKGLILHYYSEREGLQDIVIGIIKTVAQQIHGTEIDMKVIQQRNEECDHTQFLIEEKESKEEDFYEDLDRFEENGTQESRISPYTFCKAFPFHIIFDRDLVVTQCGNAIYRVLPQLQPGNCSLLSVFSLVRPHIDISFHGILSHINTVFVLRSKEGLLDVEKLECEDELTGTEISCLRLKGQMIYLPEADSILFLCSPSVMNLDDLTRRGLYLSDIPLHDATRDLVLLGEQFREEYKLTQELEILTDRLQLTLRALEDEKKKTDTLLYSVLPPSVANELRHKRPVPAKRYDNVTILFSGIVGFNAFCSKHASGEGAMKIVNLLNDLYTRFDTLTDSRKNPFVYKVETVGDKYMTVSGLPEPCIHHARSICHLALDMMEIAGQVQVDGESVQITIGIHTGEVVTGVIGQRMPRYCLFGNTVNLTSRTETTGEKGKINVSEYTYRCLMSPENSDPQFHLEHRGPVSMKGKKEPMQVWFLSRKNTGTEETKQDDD
Experiment: Cell-based sGC functional assay (CASA assay): cGMP generation in CHO-K1/sGC cells, HTRF detection
Conditions: for Emax: CHO-K1, percent activation relative to standard Compound A in CHO-K1/sGC cells, read-out: % Act.; for EC50: inflection point (IP) of cGMP generation in CHO-K1/sGC cells, 4P fit, activity expressed as percentage of Compound A
Summary of the method: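 Stable CHO-K1/sGC cells in EBSS buffer with 5 mM MgCl2, 0.05% BSA and 0.5 mM IBMX were incubated with compound (2.5% DMSO final) ±1 μM DETA-NO for 1 hr at 37° C. cGMP was measured by HTRF. Activation is expressed as % of reference HDA Compound A maximum, with IP and max fold induction from a 4P fit.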

SMILES | Emax | EC50 | % Act. (percent activation relative to standard Compound A in CHO-K1/sGC cells)
Nc1nc(-c2cn3cc(C(F)(F)F)nc3c(Cc3cccc(F)c3F)n2)nc2c1C(C(=O)NC1CC1)(C1CC1)C(=O)N2 (centres unmarked) [Example 48B, 4-amino-N,5-dicyclopropyl-2-(8-(2,3-difluorobenzyl)-2-(trifluoromethyl)imidazo[1,2-a]pyrazin-6-yl)-6-oxo-6,7-dihydro-5H-pyrrolo[2,3-d]pyrimidine-5-carboxamide] | 93% | 442 nM | 
CC1(c2ccc(Cl)cc2Cl)C(=O)Nc2nc(-c3cn4ccnc4c(CCC(F)(F)F)n3)nc(N)c21 (centres unmarked) [Example 187A, 4-amino-5-(2,4-dichlorophenyl)-5-methyl-2-(8-(3,3,3-trifluoropropyl)imidazo[1,2-a]pyrazin-6-yl)-5H-pyrrolo[2,3-d]pyrimidin-6(7H)-one] | 126% | 1070 nM | 
CC1(c2ccc(OC(F)F)cn2)C(=O)Nc2nc(-c3cn4ccnc4c(CC4CCC4)n3)nc(N)c21 (centres unmarked) [Example 117A, 4-amino-2-(8-(cyclobutylmethyl)imidazo [1,2-a]pyrazin-6-yl)-5-(5-(difluoromethoxy)pyridin-2-yl)-5-methyl-5H-pyrrolo[2,3-d]pyrimidin-6(7H)-one] | 103% | 33 nM | 
COc1ccc(C2(C)C(=O)Nc3nc(-c4cn5ccnc5c(CCC(F)(F)F)n4)nc(N)c32)cc1 (centres unmarked) [Example 192B, 4-amino-5-(4-methoxyphenyl)-5-methyl-2-(8-(3,3,3-trifluoropropyl)imidazo[1,2-a]pyrazin-6-yl)-5H-pyrrolo[2,3-d]pyrimidin-6(7H)-one] | 168% | 923 nM | 
Nc1nc(-c2cn3ccnc3c(Cc3ccc(F)cc3)n2)nc2c1C(c1ccc(Cl)cn1)(C1CC1)C(=O)N2 (single isomer, unassigned) [Example 108A, 4-amino-5-(5-chloropyridin-2-yl)-5-cyclopropyl-2-(8-(4-fluorobenzyl)imidazo[1,2-a]pyrazin-6-yl)-5H-pyrrolo[2,3-d]pyrimidin-6(7H)-one] |  | 12 nM | 121%
C#CC1(C)C(=O)Nc2nc(-c3cn4ccnc4c(CCC(F)(F)C(F)(F)F)n3)nc(N)c21 (centres unmarked) [Example 66A, 4-amino-5-ethynyl-5-methyl-2-(8-(3,3,4,4,4-pentafluorobutyl)imidazo[1,2-a]pyrazin-6-yl)-5H-pyrrolo[2,3-d]pyrimidin-6(7H)-one] | 127% | 252 nM | 
Cc1ncc(C2(C3CC3)C(=O)Nc3nc(-c4cn5ccnc5c(CCC(F)(F)C(F)(F)F)n4)nc(N)c32)cn1 (single isomer, unassigned) [Example 348B, 4-amino-5-cyclopropyl-5-(2-methylpyrimidin-5-yl)-2-(8-(3,3,4,4,4-pentafluorobutyl)imidazo[1,2-a]pyrazin-6-yl)-5H-pyrrolo[2,3-d]pyrimidin-6(7H)-one] | 175% | 1550 nM | 
CC1(c2ccc(F)cc2)C(=O)Nc2nc(-c3cn4ccnc4c(-c4ccc(C5CC5)cc4)n3)nc(N)c21 (centres unmarked) [Example 6A, 4-amino-2-(8-(4-cyclopropylphenyl)imidazo[1,2-a]pyrazin-6-yl)-5-(4-fluorophenyl)-5-methyl-5H-pyrrolo[2,3-d]pyrimidin-6(7H)-one] | 115% | 559 nM | 
CC1(c2ccc(F)cc2)C(=O)Nc2nc(-c3cn4cc(C(F)(F)F)nc4c(Cc4ccc(F)c(F)c4)n3)nc(N)c21 (centres unmarked) [Example 152A, 4-amino-2-(8-(3,4-difluorobenzyl)-2-(trifluoromethyl)imidazo[1,2-a]pyrazin-6-yl)-5-(4-fluorophenyl)-5-methyl-5H-pyrrolo[2,3-d]pyrimidin-6(7H)-one] | 129% | 43 nM | 
CCC1(c2ccc(F)cn2)C(=O)Nc2nc(-c3cn4ccnc4c(Cc4ccc(F)cc4)n3)nc(N)c21 (centres unmarked) [Example 106A, 4-amino-5-ethyl-2-(8-(4-fluorobenzyl)imidazo[1,2-a]pyrazin-6-yl)-5-(5-fluoropyridin-2-yl)-5H-pyrrolo[2,3-d]pyrimidin-6(7H)-one] | 83% | 252 nM | 
